In publication PMC11417994, “Cyclohexanediamine Triazole (CHDT) Functionalization Enables Labeling of Target Molecules with Al^18F/^68Ga/^111In” (Bioconjugate Chemistry, 2024):

Target: T1, PSMA (Homo sapiens, UniProt Q04609)
T1 construct: Detection of endogenous PSMA expression in LNCaP and PC3 cells relative to β-actin expression by Western; host or cells: LNCaP human prostate carcinoma cells (monolayer, spheroids or Potter-Elvehjem homogenates)
Test: Saturation binding using LNCaP cell homogenates
Experimental: The binding affinity of the nonlabeled CHDT-PSMA-1/2/3, PSMA-1007, PSMA-617, and KuE was assessed in competition binding assays using LNCaP cell homogenates (∼1 × 10^6 cells/mL using Potter-Elvehjem) and the radioligand [^177Lu]Lu-PSMA-617 (n = 5 for CHDT-PSMA-1; n = 4 for CHDT-PSMA-2/3; n = 2 for PSMA-1007; n = 8 for PSMA-617; n = 6 for KuE). […] The assays were performed in a final volume of 200 μL. The incubation was stopped by washing the homogenate with cold PBS four times using a filter (Whatman GF/C, 90 min presoaked in 0.3% polyethylenimine) in a cell harvester (Brandel, USA). The radioactivity bound to the filter was measured in a gamma counter. Filter binding was determined for adjacent samples without cell homogenate. […] The Kd value of [^177Lu]Lu-PSMA-617 was determined in saturation binding assays using LNCaP cell homogenates to be 15.2 (±2.1) nM. […]
Dissociations constants (Kd and Kd,int), as well as maximal binding capacities (Bmax and Bmax,int), were derived from specific binding data by nonlinear regression according to the model of “One site-specific binding” as implemented in GraphPad Prism 10. Protein content was determined using the bicinchoninic acid protein assay kit (Pierce, Thermo Scientific) to calculate the binding capacities in pmol/mg and for the time-depending internalization the internalized percent of administrated dose per μg protein (% AD/μg protein).

T1 sequence (Q04609 whole entry): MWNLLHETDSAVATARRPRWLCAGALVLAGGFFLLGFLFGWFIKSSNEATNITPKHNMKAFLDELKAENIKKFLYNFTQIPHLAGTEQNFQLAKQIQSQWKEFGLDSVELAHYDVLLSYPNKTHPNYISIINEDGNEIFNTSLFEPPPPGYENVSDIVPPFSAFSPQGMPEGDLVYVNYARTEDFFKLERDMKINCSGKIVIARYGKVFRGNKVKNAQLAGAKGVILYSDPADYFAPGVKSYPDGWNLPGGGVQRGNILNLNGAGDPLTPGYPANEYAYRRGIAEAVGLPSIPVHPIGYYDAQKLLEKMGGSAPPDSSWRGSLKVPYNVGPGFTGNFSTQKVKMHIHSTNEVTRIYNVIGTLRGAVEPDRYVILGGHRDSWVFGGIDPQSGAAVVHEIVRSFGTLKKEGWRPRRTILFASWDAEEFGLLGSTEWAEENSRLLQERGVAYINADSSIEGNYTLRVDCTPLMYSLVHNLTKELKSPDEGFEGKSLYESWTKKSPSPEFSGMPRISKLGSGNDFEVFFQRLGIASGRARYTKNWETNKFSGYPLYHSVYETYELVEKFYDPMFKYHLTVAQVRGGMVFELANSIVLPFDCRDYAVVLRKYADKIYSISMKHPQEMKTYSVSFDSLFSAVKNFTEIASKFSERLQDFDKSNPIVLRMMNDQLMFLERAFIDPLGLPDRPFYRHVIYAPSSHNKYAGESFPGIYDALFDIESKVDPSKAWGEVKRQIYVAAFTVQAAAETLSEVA

Kd: 15.2 nM
Substance: [^177Lu]Lu-PSMA-617
